Assay results taken from patent US10909691B2, “Automatically classifying animal behavior” (PRESIDENT AND FELLOWS OF HARVARD COLLEGE, priority 2016, dated 2021).

Test system: mice
Experiment: Innate behavioral response to odorant in square odor box (3D depth imaging, AR-HMM analysis)
Format: in vivo, mouse

CC1=NC(C)SC1C (stereo not drawn) [TMT]
observed behavior of mice on odor exposure (TMT delivered to one quadrant of the square box via olfactometer): avoided the quadrant containing the predator cue and displayed prolonged periods of immobility traditionally described as freezing behavior | per frame entropy rate with self-transitions (after TMT exposure): 0.64±0.02 bits | per frame entropy rate without self-transitions (after TMT exposure): 3.66±0.08 bits | number of times the most commonly-expressed freezing trigram was expressed (after TMT exposure, in 300 minutes of imaging): 716 times | change in behavioral modules relative to control (n=15 in TMT, n=25 control, model co-trained on both datasets): several modules were up-or down-regulated after TMT exposure, but no new modules were introduced or eliminated relative to control | average during-sequence velocity of freezing module sequences (under the influence of TMT, 5% concentration, delivered to one quadrant of the box): −0.14±0.54 mm/sec
